# According to patent publication US20060241175A1, “Vehicle for topical delivery of anti-inflammatory compounds” (priority 2002, published 2006):
# Like-named read-outs stand apart in the source and are kept apart here.
# Legend:
# [1] = in olive or corn oil; cited from earlier work
# physchem = settings: organic solvent or mixture, thermodynamic from solid
Compound,solubility [1],solubility (physchem; maximum solubility),solubility (physchem; solubility)
COc1ccc2c(c1)c(CC(=O)O)c(C)n2C(=O)c1ccc(Cl)cc1 [Indomethacin],below 0.2%,160 mg/mL,–
CN1C(C(=O)Nc2ccccn2)=C(O)c2ccccc2S1(=O)=O [Piroxicam],below 0.05%,–,2.9 to 3.2 mg/mL
